Assay results taken from patent US9499550B2 (BRISTOL-MYERS SQUIBB COMPANY, priority 2012, dated 2016).
Read-outs that look alike come from different tables or passages of the source.

Experiments:
[1] = test system: HCV genotype 1b (Con1) replicon in HUH-7 cells; assay: HCV replicon luciferase reporter assay, genotype 1b; type: cell-based; details: Hepatitis C virus, Huh-7, 72 h, 3 days incubation
Summary of the method: (§1)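 Replicon inhibition for both genotypes was measured as Renilla luciferase signal (EnduRen, 7.5 μM final, 2 h) after 3-day, 37° C exposure of replicon-bearing HUH-7 cells in 4% FCS DMEM, 0.5% DMSO. The 1b construct carries S1179I; the 1a H77 construct carries P1496L and S2204I. Twenty-point, 3-fold dilutions were fitted four-parametrically for EC50, and CC50 was taken from multiplexed Cell Titer-Blue.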

[2] = test system: HCV genotype 1a (H77 strain) replicon in HUH-7 cells; assay: HCV replicon luciferase reporter assay, genotype 1a; type: cell-based; details: Hepatitis C virus, Huh-7, 72 h, 3 days incubation
Summary of the method: as §1

[3] = HCV genotype 1b replicon luciferase assay, range class, read-out: LE_1b (EC50, range)
[4] = HCV genotype 1a replicon luciferase assay, range class, read-out: LE_1a (EC50, range)
[5] = HCV genotype 1b replicon luciferase, read-out: LE_1b (EC50, range)
[6] = HCV genotype 1a replicon luciferase, read-out: LE_1a (EC50, range)

Row | SMILES | EC50 [1, 3] [nM] | EC50 ([1]; HCV genotype 1b replicon luciferase assay, read-out: LE_1b (EC50)) [nM] | EC50 [2, 4] [nM] | EC50 ([2]; HCV genotype 1a replicon luciferase assay, read-out: LE_1a (EC50)) [nM] | EC50 [1, 5] [nM] | EC50 [2, 6] [nM]
1 | COc1cc(F)cc2c(O[C@@H]3C[C@H]4C(=O)N[C@]5(C(=O)NS(=O)(=O)C6CC6)C[C@H]5/C=C\CC[C@@H](C)C[C@@H](C)[C@H](NC(=O)OCC5(C)CC5)C(=O)N4C3)nccc12 [Compound 3172, (1-methylcyclopropyl)methyl ((2R,6S,7R,9R,13aS,14aR,16aS,Z)-14a-((cyclopropylsulfonyl)carbamoyl)-2-((7-fluoro-5-methoxyisoquinolin-1-yl)oxy)-7,9-dimethyl-5,16-dioxo-1,2,3,5,6,7,8,9,10,11,13a,14,14a,15,16,16a-hexadecahydrocyclopropa[e]pyrrolo[1,2-a][1,4]diazacyclopentadecin-6-yl)carbamate] | < 5.46 | 1.18 | < 5.46 | 1.04 | – | –
2 | COc1nnc(O[C@@H]2C[C@H]3C(=O)N[C@]4(C(=O)NS(=O)(=O)C5CC5)C[C@H]4/C=C\CC[C@H](C)C[C@@H](C)[C@H](NC(=O)OC(C)(C)C(F)(F)F)C(=O)N3C2)c2ccccc12 [Compound 5005, 1,1,1-trifluoro-2-methylpropan-2-yl((2R,6S,7R,9S,13aS,14aR,16aS,Z)-14a-((cyclopropylsulfonyl)carbamoyl)-2-((4-methoxyphthalazin-1-yl)oxy)-7,9-dimethyl-5,16-dioxo-1,2,3,5,6,7,8,9,10,11,13a,14,14a,15,16,16a-hexadecahydrocyclopropa[e]pyrrolo[1,2-a][1,4]diazacyclopentadecin-6-yl)carbamate] | – | – | – | – | < 5.46 | < 5.46
3 | COc1ccc2c(O[C@@H]3C[C@H]4C(=O)N[C@]5(C(=O)NS(=O)(=O)C6CC6)C[C@H]5/C=C\CC[C@@H](C)C[C@@H](C)[C@H](NC(=O)OC(C)(C)C)C(=O)N4C3)nc(-c3ccc(OC(C)C)nc3)cc2c1 [Compound 5213, tert-butyl ((2R,6S,7R,9R,13aS,14aR,16aS,Z)-14a-((cyclopropylsulfonyl)carbamoyl)-2-((3-(6-isopropoxypyridin-3-yl)-6-methoxyisoquinolin-1-yl)oxy)-7,9-dimethyl-5,16-dioxo-1,2,3,5,6,7,8,9,10,11,13a,14,14a,15,16,16a-hexadecahydrocyclopropa[e]pyrrolo[1,2-a][1,4]diazacyclopentadecin-6-yl)carbamate] | – | – | – | – | < 5.46 | < 5.46
4 | C[C@@H]1CC/C=C\[C@@H]2C[C@@]2(C(=O)NS(=O)(=O)C2CC2)NC(=O)[C@@H]2C[C@@H](Oc3nccc4c5c(ccc34)OC(F)(F)O5)CN2C(=O)[C@@H](NC(=O)OC(C)(C)C)[C@H](C)C1 [Compound 5257, tert-butyl ((2R,6S,7R,9R,13aS,14aR,16aS,Z)-14a-((cyclopropylsulfonyl)carbamoyl)-2-((2,2-difluoro-[1,3]dioxolo[4,5-f]isoquinolin-6-yl)oxy)-7,9-dimethyl-5,16-dioxo-1,2,3,5,6,7,8,9,10,11,13a,14,14a,15,16,16a-hexadecahydrocyclopropa[e]pyrrolo[1,2-a][1,4]diazacyclopentadecin-6-yl)carbamate] | – | – | – | – | < 5.46 | < 5.46
5 | COc1ccc2c(O[C@@H]3C[C@H]4C(=O)N[C@]5(C(=O)NS(=O)(=O)C6(C)CC6)C[C@H]5/C=C\CC[C@H](C)C[C@@H](C)[C@H](NC(=O)OC5C[C@@H]6C[C@@H]6C5)C(=O)N4C3)nc(-c3ccc(OC(C)C)nc3)cc2c1 (stereo partly drawn) [Compound 5228, (1R,3r,5S)-bicyclo[3.1.0]hexan-3-yl((2R,6S,7R,9S,13aS,14aR,16aS,Z)-2-((3-(6-isopropoxypyridin-3-yl)-6-methoxyisoquinolin-1-yl)oxy)-7,9-dimethyl-14a-(((1-methylcyclopropyl)sulfonyl)carbamoyl)-5,16-dioxo-1,2,3,5,6,7,8,9,10,11,13a,14,14a,15,16,16a-hexadecahydrocyclopropa[e]pyrrolo[1,2-a][1,4]diazacyclopentadecin-6-yl)carbamate] | – | – | – | – | < 5.46 | 4.82 to 103
6 | CC[C@@H]1C[C@H](C)CC/C=C\[C@@H]2C[C@@]2(C(=O)NS(=O)(=O)C2CC2)NC(=O)[C@@H]2C[C@@H](Oc3nccc4c5c(ccc34)N(C)CCO5)CN2C(=O)[C@H]1NC(=O)C(=O)N(C)C [Compound 5318, N1-((2R,6S,7R,9R,13aS,14aR,16aS,Z)-14a-((cyclopropylsulfonyl)carbamoyl)-7-ethyl-9-methyl-2-((4-methyl-3,4-dihydro-2H-[1,4]oxazino[2,3-f]isoquinolin-7-yl)oxy)-5,16-dioxo-1,2,3,5,6,7,8,9,10,11,13a,14,14a,15,16,16a-hexadecahydrocyclopropa[e]pyrrolo[1,2-a][1,4]diazacyclopentadecin-6-yl)-N2,N2-dimethyloxalamide] | – | – | – | – | < 5.46 | < 5.46
7 | CCCOc1cnc(O[C@@H]2C[C@H]3C(=O)N[C@]4(C(=O)NS(=O)(=O)C5(C)CC5)C[C@H]4/C=C\CC[C@@H](C)C[C@@H](C)[C@H](NC(=O)OC(C)(C)C)C(=O)N3C2)c2ccccc12 [Compound 5079, tert-butyl ((2R,6S,7R,9R,13aS,14aR,16aS,Z)-7,9-dimethyl-14a-(((1-methylcyclopropyl)sulfonyl)carbamoyl)-5,16-dioxo-2-((4-propoxyisoquinolin-1-yl)oxy)-1,2,3,5,6,7,8,9,10,11,13a,14,14a,15,16,16a-hexadecahydrocyclopropa[e]pyrrolo[1,2-a][1,4]diazacyclopentadecin-6-yl)carbamate] | – | – | – | – | < 5.46 | < 5.46
8 | CCOc1ccc2c(O[C@@H]3C[C@H]4C(=O)N[C@]5(C(=O)NS(=O)(=O)C6(C)CC6)C[C@H]5/C=C\CC[C@H](C)C[C@@H](C)[C@H](NC(=O)O[C@H](C)C(F)(F)F)C(=O)N4C3)nccc2c1 [Compound 5141, (R)-1,1,1-trifluoropropan-2-yl ((2R,6S,7R,9S,13aS,14aR,16aS,Z)-2-((6-ethoxyisoquinolin-1-yl)oxy)-7,9-dimethyl-14a-(((1-methylcyclopropyl)sulfonyl)carbamoyl)-5,16-dioxo-1,2,3,5,6,7,8,9,10,11,13a,14,14a,15,16,16a-hexadecahydrocyclopropa[e]pyrrolo[1,2-a][1,4]diazacyclopentadecin-6-yl)carbamate] | – | – | – | – | < 5.46 | 4.82 to 103
9 | C[C@H]1CC/C=C\[C@@H]2C[C@@]2(C(=O)NS(=O)(=O)C2CC2)NC(=O)[C@@H]2C[C@@H](Oc3nc(OCC(F)F)cc4c(Cl)cccc34)CN2C(=O)[C@@H](NC(=O)OC(C)(C)C(F)(F)F)[C@H](C)C1 [Compound 1095, 1,1,1-trifluoro-2-methylpropan-2-yl((2R,6S,7R,9S,13aS,14aR,16aS,Z)-2-((5-chloro-3-(2,2-difluoroethoxyl)isoquinolin-1-yl)oxy)-14a-((cyclopropylsulfonyl)carbamoyl)-7,9-dimethyl-5,16-dioxo-1,2,3,5,6,7,8,9,10,11,13a,14,14a,15,16,16a-hexadecahydrocyclopropa[e]pyrrolo[1,2-a][1,4]diazacyclopentadecin-6-yl)carbamate] | < 5.46 | – | 4.82 to 103 | – | – | –
10 | CCC(CC)(OC(=O)N[C@@H]1C(=O)N2C[C@H](Oc3nccc4c5c(ccc34)OCCO5)C[C@H]2C(=O)N[C@]2(C(=O)NS(=O)(=O)C3CC3)C[C@H]2/C=C\CC[C@@H](C)C[C@H]1C)C(F)(F)F [Compound 5262, 3-(trifluoromethyl)pentan-3-yl ((2R,6S,7R,9R,13aS,14aR,16aS,Z)-14a-((cyclopropylsulfonyl)carbamoyl)-2-((2,3-dihydro-[1,4]dioxino[2,3-f]isoquinolin-7-yl)oxy)-7,9-dimethyl-5,16-dioxo-1,2,3,5,6,7,8,9,10,11,13a,14,14a,15,16,16a-hexadecahydrocyclopropa[e]pyrrolo[1,2-a][1,4]diazacyclopentadecin-6-yl)carbamate] | – | – | – | – | < 5.46 | < 5.46
11 | COc1cnc(O[C@@H]2C[C@H]3C(=O)N[C@]4(C(=O)NS(=O)(=O)C5(CF)CC5)C[C@H]4/C=C\CC[C@@H](C)C[C@@H](C)[C@H](NC(=O)OC(C)(C)C(F)(F)F)C(=O)N3C2)c2ccc(N(C)C)cc12 [Compound 3144, 1,1,1-trifluoro-2-methylpropan-2-yl((2R,6S,7R,9R,13aS,14aR,16aS,Z)-2-((6-(dimethylamino)-4-methoxyisoquinolin-1-yl)oxy)-14a-(((1-(fluoromethyl)cyclopropyl)sulfonyl)carbamoyl)-7,9-dimethyl-5,16-dioxo-1,2,3,5,6,7,8,9,10,11,13a,14,14a,15,16,16a-hexadecahydrocyclopropa[e]pyrrolo[1,2-a][1,4]diazacyclopentadecin-6-yl)carbamate] | < 5.46 | – | < 5.46 | – | – | –
12 | COc1ccc2c(O[C@@H]3C[C@H]4C(=O)N[C@]5(C(=O)NS(=O)(=O)C6(C)CC6)C[C@H]5/C=C\CC[C@@H](C)C[C@@H](C)[C@H](NC(=O)OC(C)(C)C(C)(F)F)C(=O)N4C3)nc(-c3ccc(OC(C)C)cc3)c(OC)c2c1 [Compound 5346, 3,3-difluoro-2-methylbutan-2-yl((2R,6S,7R,9R,13aS,14aR,16aS,Z)-2-((3-(4-isopropoxyphenyl)-4,6-dimethoxyisoquinolin-1-yl)oxy)-7,9-dimethyl-14a-(((1-methylcyclopropyl)sulfonyl)carbamoyl)-5,16-dioxo-1,2,3,5,6,7,8,9,10,11,13a,14,14a,15,16,16a-hexadecahydrocyclopropa[e]pyrrolo[1,2-a][1,4]diazacyclopentadecin-6-yl)carbamate] | – | – | – | – | < 5.46 | < 5.46
